As usually defined, the IC50 is the concentration that inhibits the measured activity by half.

Structures can show the parent of a compound that is named as a salt.

One series relates to alloreactive Tc cells. Conditions: dosages between 10 ng/ml and 100 ug/ml; WO85/05031; cited from earlier work.
The test system of the next series is PAM 212 cells. Nature of the series: Cell growth inhibition assay (surfactants, 3-4 days, Coulter counter), PAM 212. It counts as cell-based, mouse. Conditions: PAM212; PAM 212 mouse keratinocyte-derived tumor cells; 3-4 days; read-out: IC50 (uM conc. inhibiting growth of the cells by 50%). The method, then: (§1) Established cell lines are the system of choice for the prescreening of unknown compounds for antineoplastic activity. The tumor cell line screen works on the following principle. Cancer cells, if provided with enough nutrients, will grow unchecked in vitro, allowing researchers to grow many types of cancer cells outside the body. To perform an assay, standard amounts of the various cancer cells are placed in individual wells of a microtiter plate, and incubated with the potential antineoplastic compound of interest, for a sufficient period of time to allow for at least a 6-fold control growth, generally 1 to 5 days depending on cell origin. At the end of the incubation period, the cell lines are stained and assayed by a variety of means including, for example, proteins stains or a colorimeter for normal growth, growth inhibition or cytotoxicity. These assays measure a compound's ability to inhibit cell growth and a positive response of the compounds in these assays would be indicative of the therapeutic potential of these compounds. See, for example, the protocols and data presented in Laskin et al., (1979) Cancer Res 39:383-390 for 5-fluorouracil in mouse and human cells in culture.
(§2) A total of ten cell lines were used to evaluate the growth inhibitory potency of the various surfactants. In these studies, human, rat, mouse and bovine cells were used. A spectrum of different tumor cell types were used including those derived from keratinocytes (PAM 212), leukemias (HL-60, U-937 and K-562), an epitheloid carcinoma (HeLa) and melanoma (B-16). The B16 melanoma was used since this is a common cell type used to evaluate antimetastatic activity of test compounds. The effect of the surfactants on three fibroblast cell lines (C3H 10T1/2, NIH 3T3 and R6) were also evaluated for comparison to the tumor cell lines. The activity of the surfactants was also evaluated using pulmonary aortic endothelial cells for effectiveness as antiangiogenic agents.
(§3) PAM 212 cells are a mouse keratinocyte-derived tumor cell line. U-937 cells are a human histiocytic tumor cell line. HeLa cells are an epitheloid tumor cell line. Three murine fibroblast cells lines tested included the mouse fibroblast cell line, C3H 10T1/2, the rat fibroblast cell line R6, and the NIH 3T3 mouse fibroblast cell line. The human leukemia cell line HL-60 and the mouse melanoma B-16 cell were also tested. K-562 cells were from the American Type Culture Collection. All cells were grown in Dulbecco's modified Eagle's medium in a 37° C. incubator in an atmosphere of 5% CO2.
(§4) For growth inhibition assays, cells were seeded at low density (2.5×10^4 cells in 0.5 ml of culture medium) into 24-well tissue culture plates (Falcon Labware, Lincoln Park, N.J.). After 24 hours at 37° C., increasing concentrations (1 to 100 uM) of the surfactants were added to the cells in the culture plate. Control cultures were incubated in the absence of any surfactant. The cells were then incubated for 3-4 days to allow for growth. Cells from individual wells in the culture plate were then removed and duplicate samples taken for counting using a Coulter counter. To remove adherent cells the plates were treated with 0.25% trypsin/0.2% EDTA (GIBCO, Grand Island, N.Y.).

Another series concerns C3H 10T1/2 cells. Nature of the series: Cell growth inhibition assay, C3H 10T1/2. It counts as cell-based, mouse. Conditions: C3H 10T1/2 mouse fibroblasts; 3-4 days; read-out: IC50 (uM conc. inhibiting growth of the cells by 50%). The protocol: as §1, §2, §3, §4
The test system of another series is HL-60 cells. Put plainly: Cell growth inhibition assay, HL-60. It counts as cell-based, human. The method, then: as §1, §2, §3, §4
Another series relates to NIH 3T3 cells. Put plainly: Cell growth inhibition assay, NIH 3T3. The series is classed as cell-based, mouse. To be noted: NIH3T3; NIH 3T3 mouse fibroblasts; 3-4 days; read-out: IC50 (uM conc. inhibiting growth of the cells by 50%). The method, then:
as §1, §2, §3, §4

The next series has as its system K-562 cells. Put plainly: Cell growth inhibition assay, K-562. It counts as cell-based. To be noted: Homo sapiens, K562; K-562 leukemia cells; 3-4 days; read-out: IC50 (uM conc. inhibiting growth of the cells by 50%). The protocol:
as §1, §2, §3, §4

Another series concerns B-16 cells. Put plainly: Cell growth inhibition assay, B-16 melanoma. It counts as cell-based, mouse. Conditions: B16; B-16 mouse melanoma cells; 3-4 days; read-out: IC50 (uM conc. inhibiting growth of the cells by 50%). The method, then:
as §1, §2, §3, §4

A further series has as its system R6 cells. Put plainly: Cell growth inhibition assay, R6. The series is classed as cell-based, rat. Conditions: Fibroblast; R6 rat fibroblasts; 3-4 days; read-out: IC50 (uM conc. inhibiting growth of the cells by 50%). The method, then: as §1, §2, §3, §4
The next series relates to CPA-5 cells. Put plainly: Cell growth inhibition assay, CPA-5 endothelial cells. It counts as cell-based, bovine. To be noted: Bos taurus, CPA-5 bovine aortic endothelial cells, 3-4 days, read-out: IC50 (uM conc. inhibiting growth of the cells by 50%).
Source text: as §2, §3, §4
The compounds were tested as inhibitors of growth in the bovine aortic endothelial cell line CPA-5 as taught in Example 2 in order to evaluate the possibility that they may be anti-angiogenesis agents. A hallmark of angiogenesis is the outgrowth of endothelial cells which are required in the formation of new blood vessels. This process is a critical factor in the vascularization of tumors. Inhibition of neovascularization limits the growth of tumors and would be an effective means of treating cancer. FIG. 3 illustrates that three of the compounds, 8-3S, 12-5B and 12-1B, had no activity against the CPA-5 cell line in the concentration range tested (IC50 =>100 uM), while only relatively high concentrations of 12-3S (IC50 =70 uM) were effective in inhibiting the growth of CPA-5 cells. As indicated above, with several exceptions, these compounds were also not very effective in inhibiting the growth of each of the other cell types.

Series [1] in a line: Critical micelle concentration (cmc). It counts as physicochemical. The text has this:
"Critical micelle concentration" or "cmc" refers to the point at which micelle formation begins.

In a further series the test system is ten cell lines. Nature of the series: Cell growth inhibition assays, panel of cell lines. The series is classed as cell-based, human, rat, mouse and bovine.
Source text: as §2, §3, §4

Series [2] relates to HeLa cells, DNA synthesis. Put plainly: DNA synthesis in HeLa cells (3H-thymidine). It counts as cell-based. The protocol:
(§5) The 16-5B compound was evaluated further using HeLa cells to gain some insight into the mechanism of action of this group of compounds. In these studies, the ability of this compound to inhibit macromolecular synthesis in the cells was examined. The effects of 16-5B on DNA, RNA and protein synthesis was monitored using labeled thymidine, uridine or leucine, respectively. These precursors readily incorporate into the appropriate cellular macromolecules in the cells.
(§6) For assays of macromolecular biosynthesis in HeLa cells, cells were seeded into 60 mm culture dishes (Falcon Labware, Lincoln Park, N.J.) at a density 1×10^5 /ml in 5 mls of cell culture medium. Cells were allowed to grow at 37° C. for 48 hours before use. Culture plates were then removed from the incubator and washed with phosphate buffered saline. The cells were then incubated with increasing concentrations of the 16-5B in 2 ml of serum-free Dulbecco's modified Eagle's medium supplemented with 0.075% sodium bicarbonate. Control cultures were incubated in cell culture medium without surfactant. […] Two 0.5 ml aliquots were neutralized and counted for radioactivity using a scintillation counter.

Series [3] has as its system HeLa cells, RNA synthesis. Put plainly: RNA synthesis in HeLa cells (3H-uridine). It counts as cell-based. Conditions: Homo sapiens, FIG. 2, 2 hours 3H-uridine, read-out: IC50 for uridine uptake (RNA synthesis). The method, then:
as §5, §6

Series [4] deals with HeLa cells, protein synthesis. Put plainly: Protein synthesis in HeLa cells (3H-leucine). The series is classed as cell-based. To be noted: Homo sapiens, FIG. 2, 4 hours 3H-leucine, read-out: IC50 for leucine uptake (protein synthesis). The method, then:
as §5, §6

For the compound `CCCCCCCCCCCC[N+](C)(C)CCCCCCCCCCCC.[Br-]` [didodecyl dimethyl ammonium bromide], the “immunosuppressive on alloreactive Tc cells” value with alloreactive Tc cells is “immunosuppressive on alloreactive Tc cells”.

In the case of `CCCCCCCCCCCCCCCC[N+](C)(C)CCCCCC(=O)[O-]` [16-5B, N-(5-carboxypentyl)-N,N-dimethyl-1-hexadecanaminium hydroxide inner salt], the half-maximal inhibitory concentration (IC50) came to 6 µM in the series with PAM 212 cells; 53 µM in the series with C3H 10T1/2 cells; 0.5 µM in the series with HL-60 cells (HL-60 human leukemia cells, 3-4 days, read-out: IC50 (uM conc. inhibiting growth of the cells by 50%)); 24 µM in the series on NIH 3T3 cells; 5.5 µM in the series on K-562 cells; 20 µM in the series on B-16 cells. The IC50 with R6 cells was 18 µM; with CPA-5 cells it was 18 µM; in the series on ten cell lines (all / all other cell lines tested, read-out: IC50 over the cell lines tested (range or bound)) it was 0.5 to 53 µM; in [2] (Homo sapiens, FIG. 2, 1 hour 3H-thymidine, read-out: IC50 for thymidine uptake (DNA synthesis)) it was 30 µM; in [3], 30 µM; in series [4], 30 µM. In addition, in the series on HL-60 cells (HL-60 versus other leukemia cells), the “fold greater sensitivity of HL-60 among the leukemia cells” value lay in the range of 10 to 100 fold. Besides, the cmc in [1] came to 10 µM. In the series on ten cell lines (K-562 and U-937 versus HL-60), the “fold concentration required to inhibit K-562 and U-937 growth relative to HL-60” value is listed as “approximately ten”. Moreover, the “fold concentration range spanned by the IC50's” value in the series with ten cell lines (across cell lines) came out at 100 fold. Besides, the “activity against all of the cell lines tested” value in the series on ten cell lines (growth inhibition) is recorded as “considerable activity against all of the cell lines tested”. Moreover, the “selective inhibition of macromolecular synthesis” value in [2] (DNA, RNA and protein synthesis compared) was “does not appear to selectively inhibit any of these processes”.

The values above are taken from patent publication US5545667A, “Methods for treating neoplasms with betaines” (The Clorox Company, priority 1994, dated 1996).
